Results from patent US10183950B2, “Thienopyrimidine inhibitors of atypical protein kinase C” (Cancer Research Technology Limited, priority 2011, dated 2019).

What follows are compounds tested against T1, full-length human PKCι (Homo sapiens, UniProt P41743) (assay: PKCι IC50 IMAP fluorescence polarisation assay, full-length enzyme). Details: full length PKCi at 15 μM ATP; read-out: IC50 in IMAP assay against full length PKCi.
T1 construct: Recombinant, full-length human PKCι expressed in Sf21 insect cells is also commercially available; purchased; host or cells: Sf21 insect cells
T1 sequence (P41743 1-596): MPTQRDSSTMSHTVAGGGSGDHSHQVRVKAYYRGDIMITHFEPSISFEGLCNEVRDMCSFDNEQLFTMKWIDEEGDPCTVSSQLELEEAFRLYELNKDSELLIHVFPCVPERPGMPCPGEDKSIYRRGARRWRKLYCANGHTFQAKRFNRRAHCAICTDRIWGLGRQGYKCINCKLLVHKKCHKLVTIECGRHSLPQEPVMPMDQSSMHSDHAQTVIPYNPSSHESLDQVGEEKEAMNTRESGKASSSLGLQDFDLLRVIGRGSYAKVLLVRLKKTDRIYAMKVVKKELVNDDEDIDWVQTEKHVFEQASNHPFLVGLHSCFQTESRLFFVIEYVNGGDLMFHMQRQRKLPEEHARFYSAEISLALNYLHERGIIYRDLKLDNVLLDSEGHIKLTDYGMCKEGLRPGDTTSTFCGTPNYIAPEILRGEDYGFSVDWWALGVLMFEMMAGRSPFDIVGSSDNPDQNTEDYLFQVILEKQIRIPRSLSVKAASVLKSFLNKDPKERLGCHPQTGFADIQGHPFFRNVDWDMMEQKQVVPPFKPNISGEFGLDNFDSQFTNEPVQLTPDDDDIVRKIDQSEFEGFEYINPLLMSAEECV
Format: biochemical
Procedure: Assays are based on the ability of PKCι to phosphorylate a commercially available peptide substrate in vitro. […] Recombinant, full-length human PKCι expressed in Sf21 insect cells is also commercially available. Recombinant, kinase-domain human PKCι is expressed and purified in-house.
The procedure below explains how dose response curves for inhibitors of PKCι are obtained.
Compounds to be tested are dissolved in 100% DMSO. […] 1 μl is plated into 384 well black low-binding flat bottomed assay plates which are used immediately. Dilutions and additions of compound to assay plates are carried out using Matrix WellMate® and Matrix PlateMate® Plus liquid handling systems.
The final concentration of peptide substrate in the assay is 100 nM. […] Relevant controls are included, namely no compound and no enzyme. […] The reaction is allowed to incubate for 60 minutes at room temperature, before the reaction is stopped and developed by the addition of 20 μl IMAP™ development reagent (Molecular Devices). IMAP development reagent consists of 0.25% (v/v) IMAP progressive binding reagent, 17% (v/v) IMAP progressive binding buffer A and 3% (v/v) IMAP progressive binding buffer B. The plates are then incubated for 2 hours at room temperature before being read using an appropriate plate reader, for example a Molecular Devices HT Analyst or a BMG Pherastar.

| Compound | IC50 [nM] |
| --- | --- |
| N[C@H](CNc1nc(-c2ccncc2F)nc2c(Br)csc12)Cc1ccccc1 [compound 304, (S)—N*1*-[7-Bromo-2-(3-fluoro-pyridin-4-yl)-thieno[3,2-d]pyrimidin-4-yl]-3-phenyl-propane-1,2-diamine] | < 100 |
| CC(C)(C)c1sc2c(NC[C@@H](N)Cc3ccccc3)nc(-c3ccncc3)nc2c1Br [compound 334, (S)-N*1*-(7-Bromo-6-tert-butyl-2-pyridin-4-yl-thieno[3,2-d]pyrimidin-4-yl)-3-phenyl-propane-1,2-diamine] | 1000 to 10000 |
| N#Cc1ccc(Nc2cc(-c3nc(N[C@@H]4CCNC4)c4sccc4n3)ccn2)nc1 [compound 604, 6-{4-[4-((R)-Pyrrolidin-3-ylamino)-thieno[3,2-d]pyrimidin-2-yl]-pyridin-2-ylamino}-nicotinonitrile] | 100 to 1000 |
| COc1ccc(C)cc1-c1c(C)sc2c(NC[C@@H](N)Cc3ccccc3)nc(-c3ccncc3)nc12 [compound 450, (S)-N*1*-[7-(2-Methoxy-5-methyl-phenyl)-6-methyl-2-pyridin-4-yl-thieno[3,2-d]pyrimidin-4-yl]-3-phenyl-propane-1,2-diamine] | 10000 to 40000 |
| C[C@H](O)CC#Cc1csc2c(NC[C@@H](N)Cc3ccccc3)nc(-c3ccncc3)nc12 [compound 540, (S)-5-[4-((S)-2-Amino-3-phenyl-propylamino)-2-pyridin-4-yl-thieno[3,2-d]pyrimidin-7-yl]-pent-4-yn-2-ol] | 100 to 1000 |
| N[C@H](CNc1nc(-c2ccncc2F)nc2c(Nc3ccccc3)csc12)Cc1ccccc1 [compound 491, N*4*-((S)-2-Amino-3-phenyl-propyl)-2-(3-fluoro-pyridin-4-yl)-N*7*-phenyl-thieno[3,2-d]pyrimidine-4,7-diamine] | 1000 to 10000 |
| CC[C@](C)(O)C#Cc1csc2c(NC[C@@H](N)Cc3ccccc3)nc(-c3ccncc3)nc12 [compound 523, (S)-1-[4-((S)-2-Amino-3-phenyl-propylamino)-2-pyridin-4-yl-thieno[3,2-d]pyrimidin-7-yl]-3-methyl-pent-1-yn-3-ol] | 100 to 1000 |
| Cc1c(Br)sc2c(NC[C@@H](N)Cc3ccccc3)nc(-c3ccncc3)nc12 [compound 337, (S)-N*1*-(6-Bromo-7-methyl-2-pyridin-4-yl-thieno[3,2-d]pyrimidin-4-yl)-3-phenyl-propane-1,2-diamine] | 100 to 1000 |
| O=C(Nc1cc(-c2nc(N[C@@H]3CCNC3)c3sccc3n2)ccn1)c1ccc(N2CCOCC2)cc1 [compound 621, 4-Morpholin-4-yl-N-{4-[4-((R)-pyrrolidin-3-ylamino)-thieno[3,2-d]pyrimidin-2-yl]-pyridin-2-yl}-benzamide] | 100 to 1000 |
| C/C=C\c1csc2c(NC[C@@H](N)Cc3ccccc3)nc(-c3ccncc3)nc12 [compound 407, (S)-3-Phenyl-N*1*-[7-((Z)-propenyl)-2-pyridin-4-yl-thieno[3,2-d]pyrimidin-4-yl]-propane-1,2-diamine] | < 100 |
| Cc1cc(-c2csc3c(NC[C@@H](N)Cc4ccccc4)nc(-c4ccncc4)nc23)no1 [compound 568, (S)-N*1*-[7-(5-Methyl-isoxazol-3-yl)-2-pyridin-4-yl-thieno[3,2-d]pyrimidin-4-yl]-3-phenyl-propane-1,2-diamine] | 100 to 1000 |
| N[C@H](CNc1nc(-c2ccncc2)nc2c(Nc3ccccc3)csc12)Cc1ccccc1 [compound 485, N*4*-((S)-2-Amino-3-phenyl-propyl)-N*7*-phenyl-2-pyridin-4-yl-thieno[3,2-d]pyrimidine-4,7-diamine] | 100 to 1000 |

More lines, now with the values ahead:

| IC50 [nM] | Compound |
| --- | --- |
| 100 to 1000 | N[C@H](CNc1nc(-c2ccncc2F)nc2c(-c3ccc[nH]3)csc12)Cc1ccccc1 [compound 419, (S)-N*1*-[2-(3-Fluoro-pyridin-4-yl)-7-(1H-pyrrol-2-yl)-thieno[3,2-d]pyrimidin-4-yl]-3-phenyl-propane-1,2-diamine] |
| 1000 to 10000 | CC(C)(O)C#Cc1csc2c(N[C@@H]3CCNC3)nc(-c3ccncc3F)nc12 [compound 519, 4-[2-(3-Fluoro-pyridin-4-yl)-4-((R)-pyrrolidin-3-ylamino)-thieno[3,2-d]pyrimidin-7-yl]-2-methyl-but-3-yn-2-ol] |
| 10000 to 40000 | Fc1c(-c2nc(N[C@@H]3CCNC3)c3sccc3n2)ccnc1Nc1ccccc1 [compound 619, [2-(3-Fluoro-2-phenylamino-pyridin-4-yl)-thieno[3,2-d]pyrimidin-4-yl]-(R)-pyrrolidin-3-yl-amine] |
| 1000 to 10000 | Cc1sc2c(NC[C@H](N)Cc3ccccc3)nc(-c3ccncc3)nc2c1Br [compound 329, (R)-N*1*-(7-Bromo-6-methyl-2-pyridin-4-yl-thieno[3,2-d]pyrimidin-4-yl)-3-phenyl-propane-1,2-diamine] |
| 1000 to 10000 | CC(C)C[C@H](N)CNc1nc(-c2ccncc2)nc2c(Br)csc12 [compound 346, (S)-N*1*-(7-Bromo-2-pyridin-4-yl-thieno[3,2-d]pyrimidin-4-yl)-4-methyl-pentane-1,2-diamine] |
| 100 to 1000 | NCCNc1nc(-c2ccncc2)nc2c(Br)csc12 [compound 349, N*1*-(7-Bromo-2-pyridin-4-yl-thieno[3,2-d]pyrimidin-4-yl)-ethane-1,2-diamine] |
| 10000 to 40000 | Fc1cnccc1-c1nc(N[C@@H]2CCNC2)c2sccc2n1 [compound 354, [2-(3-Fluoro-pyridin-4-yl)-thieno[3,2-d]pyrimidin-4-yl]-(R)-pyrrolidin-3-yl-amine] |
| 100 to 1000 | O=C(Nc1cc(-c2nc(N[C@@H]3CCNC3)c3sccc3n2)ccn1)[C@@H]1CCCO1 [compound 578, (S)-Tetrahydro-furan-2-carboxylic acid {4-[4-((R)-pyrrolidin-3-ylamino)-thieno[3,2-d]pyrimidin-2-yl]-pyridin-2-yl}-amide] |
| 1000 to 10000 | Cc1c(-c2ccn[nH]2)sc2c(N[C@@H]3CCNC3)nc(-c3ccncc3)nc12 [compound 389, [7-Methyl-6-(2H-pyrazol-3-yl)-2-pyridin-4-yl-thieno[3,2-d]pyrimidin-4-yl]-(R)-pyrrolidin-3-yl-amine] |
| 1000 to 10000 | N[C@H](CNc1nc(-c2ccncc2)nc2c(-c3ccc(Br)cc3)csc12)Cc1ccccc1 [compound 326, (S)-N*1*-[7-(4-Bromo-phenyl)-2-pyridin-4-yl-thieno[3,2-d]pyrimidin-4-yl]-3-phenyl-propane-1,2-diamine] |
| 100 to 1000 | N[C@H](CNc1nc(-c2ccncc2)nc2c(Br)csc12)CC1CCCCC1 [compound 348, (S)-N*1*-(7-Bromo-2-pyridin-4-yl-thieno[3,2-d]pyrimidin-4-yl)-3-cyclohexyl-propane-1,2-diamine] |
| 1000 to 10000 | c1ccc(CNc2cc(-c3nc(N[C@@H]4CCNC4)c4sccc4n3)ccn2)cc1 [compound 598, [2-(2-Benzylamino-pyridin-4-yl)-thieno[3,2-d]pyrimidin-4-yl]-(R)-pyrrolidin-3-yl-amine] |
| 1000 to 10000 | O=C(Nc1cc(-c2nc(N[C@@H]3CCNC3)c3sccc3n2)ccn1)c1cnccn1 [compound 615, Pyrazine-2-carboxylic acid {4-[4-((R)-pyrrolidin-3-ylamino)-thieno[3,2-d]pyrimidin-2-yl]-pyridin-2-yl}-amide] |
| < 100 | N[C@H](CNc1nc(-c2ccncc2)nc2c(Cl)csc12)Cc1ccccc1 [compound 306, (S)—N*1*-(7-Chloro-2-pyridin-4-yl-thieno[3,2-d]pyrimidin-4-yl)-3-phenyl-propane-1,2-diamine] |
| 10000 to 40000 | O=C(Nc1csc2c(N[C@@H]3CCNC3)nc(-c3ccncc3)nc12)C1CCCCC1 [compound 473, Cyclohexanecarboxylic acid [2-pyridin-4-yl-4-((R)-pyrrolidin-3-ylamino)-thieno[3,2-d]pyrimidin-7-yl]-amide] |

Same assay, conditions: full length PKCi at 15 μM ATP; read-out: IC50 in IMAP assay against full length PKCi (Activity)

| IC50 [nM] | Compound |
| --- | --- |
| 10000 to 40000 | CC1(C)CCc2c(sc3nc(-c4ccncc4)nc(NC[C@@H](N)Cc4ccccc4)c23)C1 [compound 77, (S)-N*1*-(7,7-Dimethyl-2-pyridin-4-yl-5,6,7,8-tetrahydro-benzo[4,5]thieno[2,3-d]pyrimidin-4-yl)-3-phenyl-propane-1,2-diamine] |
| 100 to 1000 | Cc1cccc(C[C@H](N)CNc2nc(-c3ccncc3)nc3sc4c(c23)CCCC4)c1 [compound 48, (S)-N*1*-(2-Pyridin-4-yl-5,6,7,8-tetrahydro-benzo[4,5]thieno[2,3-d]pyrimidin-4-yl)-3-m-tolyl-propane-1,2-diamine] |
